Here are results for one molecule from PMC2810868 (Nature, 2009).

For one assay, the target named is T1, PYL2 (Arabidopsis thaliana, UniProt O80992).
T1 sequence (O80992 14-188): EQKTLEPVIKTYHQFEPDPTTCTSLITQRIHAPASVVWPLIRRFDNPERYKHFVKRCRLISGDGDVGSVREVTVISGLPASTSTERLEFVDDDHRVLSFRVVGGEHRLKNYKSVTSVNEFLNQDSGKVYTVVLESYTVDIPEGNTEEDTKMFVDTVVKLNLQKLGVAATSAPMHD
T1 sequence (Q9CAJ0 172-511 partner): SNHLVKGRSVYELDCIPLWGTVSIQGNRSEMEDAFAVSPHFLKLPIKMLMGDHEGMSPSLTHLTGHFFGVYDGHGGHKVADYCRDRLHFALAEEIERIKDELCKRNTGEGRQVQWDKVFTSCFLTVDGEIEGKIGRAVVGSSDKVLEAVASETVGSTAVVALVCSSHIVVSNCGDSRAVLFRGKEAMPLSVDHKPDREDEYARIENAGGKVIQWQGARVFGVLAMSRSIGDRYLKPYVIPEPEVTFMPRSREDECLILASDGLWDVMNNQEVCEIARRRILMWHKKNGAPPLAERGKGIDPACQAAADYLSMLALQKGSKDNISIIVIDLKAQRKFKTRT
As to the kind of experiment: crystal structure of PYL2-ABA. Type of assay: biochemical.

The target in another assay is T2, PYR1(H115A) (Arabidopsis thaliana, UniProt O49686, H115A).
T2 sequence (O49686 1-191 H115A): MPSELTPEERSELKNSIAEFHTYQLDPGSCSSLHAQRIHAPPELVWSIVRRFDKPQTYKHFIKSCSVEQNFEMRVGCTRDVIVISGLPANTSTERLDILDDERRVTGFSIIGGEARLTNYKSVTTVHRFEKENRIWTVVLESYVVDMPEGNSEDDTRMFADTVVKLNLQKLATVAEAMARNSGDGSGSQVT
As to the kind of experiment: 1H-15N HSQC NMR with and without S-ABA. Type of assay: binding.

Usually IC50 stands for the concentration needed to halve the response being measured.

Molecule `CC1=CC(=O)CC(C)(C)C1(O)/C=C/C(C)=C\C(=O)O` (centres unmarked) [S-ABA] registered a half-inhibitory concentration (IC50) on PYL2 of 150 nM. Moreover, at PYR1(H115A), the “1H-15N HSQC NMR with and without S-ABA” value is recorded as “ABA binding is unaltered by the H115A mutation in the PYR1 latch”.
